Data reported in patent US10201546B2, “Quinolinyl modulators of RORγt” (Janssen Pharmaceutica NV, priority 2013, dated 2019).

Molecular target: human RORγt ligand binding domain (RORγt LBD) (Homo sapiens (Human), UniProt P51449)
Assay: RORγt ThermoFluor assay (thermal shift, binding affinity Kd)
Settings: read-out: ThermoFluor ® Assay, Kd

human RORγt ligand binding domain (RORγt LBD), sequence (P51449 other isoform, or with tags, fused parts or gaps): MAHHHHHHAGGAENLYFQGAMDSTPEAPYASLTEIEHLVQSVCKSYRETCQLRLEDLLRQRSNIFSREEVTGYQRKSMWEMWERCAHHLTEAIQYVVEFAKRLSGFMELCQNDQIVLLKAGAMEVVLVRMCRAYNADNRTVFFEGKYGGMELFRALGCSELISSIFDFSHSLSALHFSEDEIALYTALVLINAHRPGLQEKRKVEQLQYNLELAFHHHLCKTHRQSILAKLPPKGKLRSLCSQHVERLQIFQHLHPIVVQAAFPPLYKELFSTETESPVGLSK

Kd [nM]	Structure (SMILES)
770	COc1nc2ccc(C(O)(c3cnc(C)n3C)c3cnc(C)n3C)cc2c(Cl)c1CNC(=O)CC(F)(F)F [Example 185, N-((6-(Bis(1,2-dimethyl-1H-imidazol-5-yl)(hydroxy)methyl)-4-chloro-2-methoxyquinolin-3-yl)methyl)-3,3,3-trifluoropropanamide]
5100	COc1nc2ccc(C(O)(c3ccc(C)nc3C)c3cnnn3C)cc2c(Cl)c1C(=O)N1CCCC1 (centres unmarked) [Example 151, [4-Chloro-2-methoxy-3-(pyrrolidin-1-ylcarbonyl)quinolin-6-yl](2,6-dimethylpyridin-3-yl)(1-methyl-1H-1,2,3-triazol-5-yl)methanol]

Molecular target: human RORγt LBD fused to the DNA binding domain of the GAL4 protein (Homo sapiens (Human), UniProt P51449)
Sequence (P51449 258-518): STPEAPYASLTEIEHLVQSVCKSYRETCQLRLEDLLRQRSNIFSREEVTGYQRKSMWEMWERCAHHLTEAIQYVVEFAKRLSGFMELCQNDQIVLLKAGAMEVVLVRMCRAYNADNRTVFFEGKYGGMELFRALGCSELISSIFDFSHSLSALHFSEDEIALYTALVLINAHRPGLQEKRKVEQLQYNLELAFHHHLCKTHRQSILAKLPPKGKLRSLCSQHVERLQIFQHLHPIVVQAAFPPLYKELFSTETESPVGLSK
Assay: RORγt (LBD) reporter assay in HEK293T cells
Format: cell-based
Parameters: RORγt (LBD) Reporter Assay, % inhibition: dose or concentration left out as unconfirmed
Settings: not given

RORγt (LBD) Reporter Assay, % inhibition [%]	Structure (SMILES)
98	COc1nc2ccc(C(O)(c3ccc(C)nc3C)c3cnnn3C)cc2c(Cl)c1CC(C)C (single isomer, unassigned) [Example 133c, (4-Chloro-3-isobutyl-2-methoxyquinolin-6-yl)(2,6-dimethylpyridin-3-yl)(1-methyl-1H-1,2,3-triazol-5-yl)methanol]
98	COc1nc2ccc(C(O)(c3ccc(C)nc3C)c3cnnn3C)cc2c(Cl)c1CC(C)C (centres unmarked) [Example 133a, (4-Chloro-3-isobutyl-2-methoxyquinolin-6-yl)(2,6-dimethylpyridin-3-yl)(1-methyl-1H-1,2,3-triazol-5-yl)methanol]
77	COc1nc2ccc(C(O)(c3ccc(C)nc3C)c3cnnn3C)cc2c(Cl)c1CC(F)(F)F (single isomer, unassigned) [Example 143b, [4-Chloro-2-methoxy-3-(2,2,2-trifluoroethyl)quinolin-6-yl](2,6-dimethylpyridin-3-yl)(1-methyl-1H-1,2,3-triazol-5-yl)methanol]

Same assay, conditions: @ 6 μM

RORγt (LBD) Reporter Assay, % inhibition @ 6 μM [%]	Structure (SMILES)
23	COc1nc2ccc(C(O)(c3ccc(C)nc3C)c3cnnn3C)cc2c(Cl)c1C (single isomer, unassigned) [Example 12b, (4-Chloro-2-methoxy-3-methylquinolin-6-yl)(2,6-dimethylpyridin-3-yl)(1-methyl-1H-1,2,3-triazol-5-yl)methanol]
53	COc1nc2ccc(C(O)(c3ccc(C)nc3C)c3cnnn3C)cc2c(Cl)c1OCC1CC1(F)F (single isomer, unassigned) [Example 72b, {4-Chloro-3-[(2,2-difluorocyclopropyl)methoxy]-2-methoxyquinolin-6-yl}(2,6-dimethylpyridin-3-yl)(1-methyl-1H-1,2,3-triazol-5-yl)methanol]
54	COc1nc2ccc(C(O)(c3ccc(C)nc3C)c3cnnn3C)cc2c(Cl)c1OCC1CC1 (single isomer, unassigned) [Example 68b, [4-Chloro-3-(cyclopropylmethoxy)-2-methoxyquinolin-6-yl](2,6-dimethylpyridin-3-yl)(1-methyl-1H-1,2,3-triazol-5-yl)methanol]
66	COc1nc2ccc(C(O)(c3ccc(C)nc3C)c3cnnn3C)cc2c(Cl)c1CC1CCC(F)(F)CC1 (single isomer, unassigned) [Example 1c, (4-Chloro-3-((4,4-difluorocyclohexyl)methyl)-2-methoxyquinolin-6-yl)(2,6-dimethylpyridin-3-yl)(1-methyl-1H-1,2,3-triazol-5-yl)methanol]
72	COc1nc2ccc(C(O)(c3ccc(C)nc3C)c3cnnn3C)cc2c(Cl)c1CC1CC1 (single isomer, unassigned) [Example 14b, (4-Chloro-3-(cyclopropylmethyl)-2-methoxyquinolin-6-yl)(2,6-dimethylpyridin-3-yl)(1-methyl-1H-1,2,3-triazol-5-yl)methanol]
14	COc1nc2ccc(C(O)(c3ccc(C)nc3C)c3cnnn3C)cc2c(Cl)c1CN1CCC(F)CC1 (single isomer, unassigned) [Example 108c, (4-Chloro-3-((4-fluoropiperidin-1-yl)methyl)-2-methoxyquinolin-6-yl)(2,6-dimethylpyridin-3-yl)(1-methyl-1H-1,2,3-triazol-5-yl)methanol]
30	COCCOc1c(OC)nc2ccc(C(O)(c3ccc(C(F)(F)F)nc3)c3cncn3C)cc2c1Cl (single isomer, unassigned) [Example 79b, [4-Chloro-2-methoxy-3-(2-methoxyethoxy)quinolin-6-yl](1-methyl-1H-imidazol-5-yl)[6-(trifluoromethyl)pyridin-3-yl]methanol]
96	COc1nc2ccc(C(O)(c3ccc(C(F)(F)F)nc3)c3cncn3C)cc2c(Cl)c1CN1CCC(C(F)(F)F)CC1 (single isomer, unassigned) [Example 112c, (4-Chloro-2-methoxy-3-((4-(trifluoromethyl)piperidin-1-yl)methyl)quinolin-6-yl)(1-methyl-1H-imidazol-5-yl)(6-(trifluoromethyl)pyridin-3-yl)methanol]
99	COc1nc2ccc(C(O)(c3ccc(C)nc3C)c3cnnn3C)cc2c(Cl)c1CN1CCC(C(F)(F)F)CC1 (single isomer, unassigned) [Example 103c, (4-Chloro-2-methoxy-3-((4-(trifluoromethyl)piperidin-1-yl)methyl)quinolin-6-yl)(2,6-dimethylpyridin-3-yl)(1-methyl-1H-1,2,3-triazol-5-yl)methanol]
98	COc1nc2ccc(C(O)(c3ccc(C)nc3C)c3cnnn3C)cc2c(Cl)c1CC1CC1 (single isomer, unassigned) [Example 14c, (4-Chloro-3-(cyclopropylmethyl)-2-methoxyquinolin-6-yl)(2,6-dimethylpyridin-3-yl)(1-methyl-1H-1,2,3-triazol-5-yl)methanol]
−15	COc1nc2ccc(C(O)(c3ccc(C)nc3C)c3cnnn3C)cc2c(Cl)c1OCc1nccs1 (single isomer, unassigned) [Example 73b, [4-Chloro-2-methoxy-3-(1,3-thiazol-2-ylmethoxy)quinolin-6-yl](2,6-dimethylpyridin-3-yl)(1-methyl-1H-1,2,3-triazol-5-yl)methanol]
72	COc1nc2ccc(C(O)(c3ccc(C)nc3C)c3cnnn3C)cc2c(Cl)c1CN1CC(C(F)(F)F)C1 (single isomer, unassigned) [Example 114c, (4-Chloro-2-methoxy-3-((3-(trifluoromethyl)azetidin-1-yl)methyl)quinolin-6-yl)(2,6-dimethylpyridin-3-yl)(1-methyl-1H-1,2,3-triazol-5-yl)methanol]

Same assay, conditions: HEK-293T, read-out: RORγt (LBD) Reporter Assay, % inhibition @ 6 μM, @ 6 μM

inhibition at 6 µM [%]	Structure (SMILES)
83	COc1nc2ccc(C(O)(c3ccc(C)nc3C)c3cnnn3C)cc2c(Cl)c1OCC1CC1 (centres unmarked) [Example 68a, [4-Chloro-3-(cyclopropylmethoxy)-2-methoxyquinolin-6-yl](2,6-dimethylpyridin-3-yl)(1-methyl-1H-1,2,3-triazol-5-yl)methanol]
99	COc1nc2ccc(C(O)(c3ccc(C)nc3C)c3cnnn3C)cc2c(Cl)c1CC1CC1 (centres unmarked) [Example 14a, (4-Chloro-3-(cyclopropylmethyl)-2-methoxyquinolin-6-yl)(2,6-dimethylpyridin-3-yl)(1-methyl-1H-1,2,3-triazol-5-yl)methanol]
-112	COc1nc2ccc(C(O)(c3ccc(C)nc3C)c3cnnn3C)cc2c(Cl)c1OCc1ncccn1 (centres unmarked) [Example 66a, [4-Chloro-2-methoxy-3-(pyrimidin-2-ylmethoxy)quinolin-6-yl](2,6-dimethylpyridin-3-yl)(1-methyl-1H-1,2,3-triazol-5-yl)methanol]
54	COc1nc2ccc(C(O)(c3ccc(C)nc3C)c3cnnn3C)cc2c(Cl)c1CN1CCC(F)(F)CC1 (centres unmarked) [Example 107a, (4-Chloro-3-((4,4-difluoropiperidin-1-yl)methyl)-2-methoxyquinolin-6-yl)(2,6-dimethylpyridin-3-yl)(1-methyl-1H-1,2,3-triazol-5-yl)methanol]
103	COc1nc2ccc(C(O)(c3cnnn3C)c3cnc(C)n3C)cc2c(Cl)c1CN1CCC(C(F)(F)F)CC1 (single isomer, unassigned) [Example 106b, (4-Chloro-2-methoxy-3-((4-(trifluoromethyl)piperidin-1-yl)methyl)quinolin-6-yl)(1,2-dimethyl-1H-imidazol-5-yl)(1-methyl-1H-1,2,3-triazol-5-yl)methanol]
90	COc1nc2ccc(C(O)(c3ccc(C)nc3C)c3cnnn3C)cc2c(Cl)c1CN1CCC(C(F)(F)F)CC1 (single isomer, unassigned) [Example 103b, (4-Chloro-2-methoxy-3-((4-(trifluoromethyl)piperidin-1-yl)methyl)quinolin-6-yl)(2,6-dimethylpyridin-3-yl)(1-methyl-1H-1,2,3-triazol-5-yl)methanol]
45	COc1nc2ccc(C(O)(c3cncn3C)C3CCN(C(C)=O)CC3)cc2c(Cl)c1CC1CCOCC1 (centres unmarked) [Example 5a, 1-(4-((4-Chloro-2-methoxy-3-((tetrahydro-2H-pyran-4-yl)methyl)quinolin-6-yl)(hydroxy)(1-methyl-1H-imidazol-5-yl)methyl)piperidin-1-yl)ethanone]
38	COc1nc2ccc(C(O)(c3ccc(C)nc3C)c3cnnn3C)cc2c(Cl)c1CN1CCC(F)(F)CC1 (single isomer, unassigned) [Example 107b, (4-Chloro-3-((4,4-difluoropiperidin-1-yl)methyl)-2-methoxyquinolin-6-yl)(2,6-dimethylpyridin-3-yl)(1-methyl-1H-1,2,3-triazol-5-yl)methanol]
93	COc1nc2ccc(C(O)(c3ccc(C)nc3C)c3cnnn3C)cc2c(Cl)c1C (centres unmarked) [Example 12a, (4-Chloro-2-methoxy-3-methylquinolin-6-yl)(2,6-dimethylpyridin-3-yl)(1-methyl-1H-1,2,3-triazol-5-yl)methanol]
